Laboratory results from ChEMBL document CHEMBL1147278, “Pharmacologically Active Metabolites from Symbiotic Microalgae in Okinawan Marine Invertebrates” (J Nat Prod, 1989).
≈ marks a conversion by molar mass, not a printed value.

System: not listed separately
Test: Activation of calcium ATPase in sarcoplasmic reticulum at 100 uM

Row | Activity | Structure (SMILES)
1 | 30% | CCCCCCCCCCCCCC/C=C/C(O)C(=O)N[C@@H](CO)[C@H](O)CCCCCCCCCCCCCCC (some centres undefined) [SYMBIORAMIDE]

System: L1210
Test: Antitumor activity against mouse L1210 cells
Type: functional, cell-based

Row | IC50 | Structure (SMILES)
2 | 0.0058 µg/mL (≈ 0.00811 µM) | C=C1/C=C(\C)[C@@H](C)[C@@H](O)CC(=O)[C@@H](C)CC(=O)C[C@H]2CC[C@@H](O2)[C@H](/C=C/C=C(\C)[C@@H](O)C(=C)CCCC)OC(=O)C[C@@H]2O[C@H](C[C@H]2C)[C@H](O)[C@@H]1O [AMPHIDINOLIDE C]
3 | 0.00014 µg/mL (≈ 0.000249 µM) | C=C1/C=C(\C)[C@](C)(O)C[C@H](O)CC(=O)[C@H](O)[C@@H](O)[C@H](C)C[C@H](C)OC(=O)/C(C)=C/CC/C=C/[C@@H]2O[C@H]2C[C@H](C)C1 [AMPHIDINOLIDE B]
4 | 9.5 µg/mL (≈ 16.3 µM) | CCCCCCCCCCCCCC/C=C/C(O)C(=O)N[C@@H](CO)[C@H](O)CCCCCCCCCCCCCCC (some centres undefined) [SYMBIORAMIDE]
5 | 2.4 µg/mL (≈ 4.52 µM) | C=C1C/C=C/[C@H](O)[C@@H](O)C(=C)[C@@H](O)[C@H](O)C(=C)C/C=C/C(C)=C/C(=O)O[C@H]([C@@H]2O[C@H]2[C@@H](C)CCC)[C@@H](C)C1 [AMPHIDINOLIDE A]
6 | 0.019 µg/mL (≈ 0.0338 µM) | C=C1/C=C(\C)[C@](C)(O)C[C@H](O)CC(=O)[C@@H](O)[C@@H](O)[C@H](C)C[C@H](C)OC(=O)/C(C)=C/CC/C=C/[C@@H]2O[C@H]2C[C@H](C)C1 [AMPHIDINOLIDE D]

Target: not listed separately
Test: Inhibition of sodium potassium ATPase activity

Row | IC50 | Structure (SMILES)
7 | 20 µM | CC/C=C\C/C=C\C/C=C\C/C=C\CCCCC(=O)OCC(O)CO[C@@H]1O[C@H](CO)[C@H](O)[C@H](O)[C@H]1O (some centres undefined)
8 | 20 µM | CC/C=C\C/C=C\C/C=C\C/C=C\CCCCC(=O)OCC(CO[C@@H]1O[C@H](CO)[C@H](O)[C@H](O)[C@H]1O)OC(=O)CCCC/C=C\C/C=C\C/C=C\C/C=C\CC (some centres undefined)
9 | 20 µM | CC/C=C\C/C=C\C/C=C\C/C=C\CCCCC(=O)OCC(CO[C@@H]1O[C@H](CO[C@H]2O[C@H](CO)[C@H](O)[C@H](O)[C@H]2O)[C@H](O)[C@H](O)[C@H]1O)OC(=O)CCCC/C=C\C/C=C\C/C=C\C/C=C\CC (some centres undefined)
